This note sets out measurements from US12528786B2, “Plasma kallikrein inhibitors” (Merck Sharp & Dohme LLC, priority 2020, dated 2026).

The test has as its target T1, Human plasma kallikrein (Homo sapiens, UniProt P03952).
T1 construct: yields a heavy chain (371 amino acids) and a light chain (248 amino acids); purchased Enzyme Research Laboratories
In words: Kallikrein Assay (fluorogenic substrate hydrolysis, AFC release). The class given is biochemical. The note with it: purified Human plasma kallikrein 0.5 nM; substrate Acetyl-K—P—R-AFC 100 mM; 50 mM HEPES pH 7.4. The gist of the method:
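Enzyme–inhibitor equilibrated before substrate dilution to ≤0.2 Km; human plasma kallikrein at 0.5 nM final, Acetyl-K-P-R-AFC substrate, HEPES pH 7.4 buffer with NaCl, CaCl2, PEG 8000, at room temperature or 37° C. Linear-phase fluorescence rate gives percent inhibition, four-parameter logistic IC50, then Cheng-Prusoff Ki.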

T1 sequence (P03952 391-638 limits assumed): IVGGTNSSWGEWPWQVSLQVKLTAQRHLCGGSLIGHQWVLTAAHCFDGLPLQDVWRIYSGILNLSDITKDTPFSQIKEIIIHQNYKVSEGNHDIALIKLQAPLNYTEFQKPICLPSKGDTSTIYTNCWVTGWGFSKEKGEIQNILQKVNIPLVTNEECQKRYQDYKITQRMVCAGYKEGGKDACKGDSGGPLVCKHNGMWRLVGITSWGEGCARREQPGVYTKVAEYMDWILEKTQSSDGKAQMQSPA
T1 sequence (P03952 20-390 partner limits assumed): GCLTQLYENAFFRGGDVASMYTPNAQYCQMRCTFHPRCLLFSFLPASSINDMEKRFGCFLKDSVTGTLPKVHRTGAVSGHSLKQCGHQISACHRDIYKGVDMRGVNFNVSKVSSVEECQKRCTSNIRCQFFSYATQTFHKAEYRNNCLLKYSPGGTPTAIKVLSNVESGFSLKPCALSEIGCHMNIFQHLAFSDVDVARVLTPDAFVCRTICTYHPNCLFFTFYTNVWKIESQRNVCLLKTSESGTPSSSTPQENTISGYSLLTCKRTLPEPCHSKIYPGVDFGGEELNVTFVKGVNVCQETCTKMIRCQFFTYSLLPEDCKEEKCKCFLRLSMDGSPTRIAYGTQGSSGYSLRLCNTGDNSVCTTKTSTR

In general, IC50 refers to the concentration that gives 50% inhibition. Lower therefore signals inhibition by little substance. In turn, `CC(c1cnc(N2C[C@H]3C[C@H]3C2=O)c(F)c1)n1cc(C(=O)N[C@H]2C[C@@H](c3cc(Cl)ccc3C#N)C2)nn1` (single isomer, unassigned) [Example 104, N-((cis)-3-(5-chloro-2-cyanophenyl)cyclobutyl)-1-((S or R)-1-(5-fluoro-6-((1R,5S)-2-oxo-3-azabicyclo[3.1.0]hexan-3-yl)pyridin-3-yl)ethyl)-1H-1,2,3-triazole-4-carboxamide] came in with a half-maximal inhibitory concentration (IC50) of 4.3 nM. Then `COc1cc(C(C)n2cc(C(=O)N[C@H]3C[C@@](C)(c4cc(Cl)ccc4C#N)C3)nn2)cnc1N1C[C@H]2C[C@H]2C1=O` (single isomer, unassigned) [Example 105, N-((cis)-3-(5-chloro-2-cyanophenyl)-3-methylcyclobutyl)-1-((R or S)-1-(5-methoxy-6-((1R,5S)-2-oxo-3-azabicyclo[3.1.0]hexan-3-yl)pyridin-3-yl)ethyl)-1H-1,2,3-triazole-4-carboxamide], with 0.6 nM. For `COc1cc(C(C)n2cc(C(=O)N[C@H]3C[C@@](C)(c4cc(Cl)ccc4C#N)C3)nn2)cnc1N1C[C@H]2C[C@H]2C1=O` (single isomer, unassigned) [Example 106, N-((cis)-3-(5-chloro-2-cyanophenyl)-3-methylcyclobutyl)-1-((S or R)-1-(5-methoxy-6-((1R,5S)-2-oxo-3-azabicyclo[3.1.0]hexan-3-yl)pyridin-3-yl)ethyl)-1H-1,2,3-triazole-4-carboxamide] the value was 2.2 nM; for `CC(c1cnc(N2C[C@H]3C[C@H]3C2=O)c(N)c1)n1cc(C(=O)N[C@H]2C[C@@H](c3cc(Cl)ccc3C#N)C2)nn1` (single isomer, unassigned) [Example 107, 1-((R or S)-1-(5-amino-6-((1R,5S)-2-oxo-3-azabicyclo[3.1.0]hexan-3-yl)pyridin-3-yl)ethyl)-N-((cis)-3-(5-chloro-2-cyanophenyl)cyclobutyl)-1H-1,2,3-triazole-4-carboxamide], 4.8 nM; for `CC(c1cnc(N2C[C@H]3C[C@H]3C2=O)c(N)c1)n1cc(C(=O)N[C@H]2C[C@@H](c3cc(Cl)ccc3C#N)C2)nn1` (single isomer, unassigned) [Example 108, 1-((S or R)-1-(5-amino-6-((1R,5S)-2-oxo-3-azabicyclo[3.1.0]hexan-3-yl)pyridin-3-yl)ethyl)-N-((cis)-3-(5-chloro-2-cyanophenyl)cyclobutyl)-1H-1,2,3-triazole-4-carboxamide], 6.5 nM. Then `Cc1nc(C(C)n2cc(C(=O)N[C@H]3C[C@@](C)(c4cc(Cl)ccc4C#N)C3)nn2)cnc1N1C[C@H]2C[C@H]2C1=O` (single isomer, unassigned) [Example 109, N-((cis)-3-(5-chloro-2-cyanophenyl)-3-methylcyclobutyl)-1-((R or S)-1-(6-methyl-5-((1R,5S)-2-oxo-3-azabicyclo[3.1.0]hexan-3-yl)pyrazin-2-yl)ethyl)-1H-1,2,3-triazole-4-carboxamide], with 0.2 nM; and `Cc1nc(C(C)n2cc(C(=O)N[C@H]3C[C@@](C)(c4cc(Cl)ccc4C#N)C3)nn2)cnc1N1C[C@H]2C[C@H]2C1=O` (single isomer, unassigned) [Example 110, N-((cis)-3-(5-chloro-2-cyanophenyl)-3-methylcyclobutyl)-1-((S or R)-1-(6-methyl-5-((1R,5S)-2-oxo-3-azabicyclo[3.1.0]hexan-3-yl)pyrazin-2-yl)ethyl)-1H-1,2,3-triazole-4-carboxamide], with 1.1 nM. Take `COc1c(N2C[C@H]3C[C@H]3C2=O)ncc(C(C)n2cc(C(=O)N[C@H]3C[C@@H](c4cc(Cl)ccc4C#N)C3)nn2)c1C` (single isomer, unassigned) [Example 111, N-((cis)-3-(5-chloro-2-cyanophenyl)cyclobutyl)-1-((R or S)-1-(5-methoxy-4-methyl-6-((1R,5S)-2-oxo-3-azabicyclo[3.1.0]hexan-3-yl)pyridin-3-yl)ethyl)-1H-1,2,3-triazole-4-carboxamide]: the concentration for half-maximal inhibition (IC50) is 0.3 nM. Then `COc1c(N2C[C@H]3C[C@H]3C2=O)ncc(C(C)n2cc(C(=O)N[C@H]3C[C@@H](c4cc(Cl)ccc4C#N)C3)nn2)c1C` (single isomer, unassigned) [Example 112, N-((cis)-3-(5-chloro-2-cyanophenyl)cyclobutyl)-1-((S or R)-1-(5-methoxy-4-methyl-6-((1R,5S)-2-oxo-3-azabicyclo[3.1.0]hexan-3-yl)pyridin-3-yl)ethyl)-1H-1,2,3-triazole-4-carboxamide], with 6.7 nM; and `Cc1ccc(C#N)c([C@H]2C[C@@H](NC(=O)c3cn(C(C)c4cnc(N5C[C@H]6C[C@H]6C5=O)c(C)c4C)nn3)C2)c1` (single isomer, unassigned) [Example 113, N-((cis)-3-(2-cyano-5-methylphenyl)cyclobutyl)-1-((R or S)-1-(4,5-dimethyl-6-((1R,5S)-2-oxo-3-azabicyclo[3.1.0]hexan-3-yl)pyridin-3-yl)ethyl)-1H-1,2,3-triazole-4-carboxamide], with 0.4 nM. Then `Cc1ccc(C#N)c([C@H]2C[C@@H](NC(=O)c3cn(C(C)c4cnc(N5C[C@H]6C[C@H]6C5=O)c(C)c4C)nn3)C2)c1` (single isomer, unassigned) [Example 114, N-((cis)-3-(2-cyano-5-methylphenyl)cyclobutyl)-1-((S or R)-1-(4,5-dimethyl-6-((1R,5S)-2-oxo-3-azabicyclo[3.1.0]hexan-3-yl)pyridin-3-yl)ethyl)-1H-1,2,3-triazole-4-carboxamide], with 6.1 nM. Then `Cc1ccc(C#N)c([C@H]2C[C@@H](NC(=O)c3cn(C(C)c4cnc(N5C[C@H]6C[C@H]6C5=O)c(C)n4)nn3)C2)n1` (single isomer, unassigned) [Example 115, N-((cis)-3-(3-cyano-6-methylpyridin-2-yl)cyclobutyl)-1-((R or S)-1-(6-methyl-5-((1R,5S)-2-oxo-3-azabicyclo[3.1.0]hexan-3-yl)pyrazin-2-yl)ethyl)-1H-1,2,3-triazole-4-carboxamide], with 22.4 nM.

`Cc1ccc(C#N)c([C@H]2C[C@@H](NC(=O)c3cn(C(C)c4cnc(N5C[C@H]6C[C@H]6C5=O)c(C)n4)nn3)C2)n1` (single isomer, unassigned) [Example 116, N-((cis)-3-(3-cyano-6-methylpyridin-2-yl)cyclobutyl)-1-((S or R)-1-(6-methyl-5-((1R,5S)-2-oxo-3-azabicyclo[3.1.0]hexan-3-yl)pyrazin-2-yl)ethyl)-1H-1,2,3-triazole-4-carboxamide] gave a half-maximal inhibitory concentration (IC50) of 6.9 nM. Then `Cc1cc(N2C[C@H]3C[C@H]3C2=O)nnc1C(C)n1cc(C(=O)N[C@H]2C[C@@H](c3cc(Cl)ccc3C#N)C2)nn1` (single isomer, unassigned) [Example 117, N-((cis)-3-(5-chloro-2-cyanophenyl)cyclobutyl)-1-((R or S)-1-(4-methyl-6-((1R,5S)-2-oxo-3-azabicyclo[3.1.0]hexan-3-yl)pyridazin-3-yl)ethyl)-1H-1,2,3-triazole-4-carboxamide], with 968 nM. For `Cc1cc(N2C[C@H]3C[C@H]3C2=O)nnc1C(C)n1cc(C(=O)N[C@H]2C[C@@H](c3cc(Cl)ccc3C#N)C2)nn1` (single isomer, unassigned) [Example 118, N-((cis)-3-(5-chloro-2-cyanophenyl)cyclobutyl)-1-((S or R)-1-(4-methyl-6-((1R,5S)-2-oxo-3-azabicyclo[3.1.0]hexan-3-yl)pyridazin-3-yl)ethyl)-1H-1,2,3-triazole-4-carboxamide] the value was 4.7 nM. Then `Cc1ccc(C#N)c([C@H]2C[C@@H](NC(=O)c3cn(C(C)c4cnc(N5C[C@H]6C[C@H]6C5=O)c(F)c4C)nn3)C2)c1` (single isomer, unassigned) [Example 119, N-((cis)-3-(2-cyano-5-methylphenyl)cyclobutyl)-1-((R or S)-1-(5-fluoro-4-methyl-6-((1R,5S)-2-oxo-3-azabicyclo[3.1.0]hexan-3-yl)pyridin-3-yl)ethyl)-1H-1,2,3-triazole-4-carboxamide], with 26 nM; and `Cc1ccc(C#N)c([C@H]2C[C@@H](NC(=O)c3cn(C(C)c4cnc(N5C[C@H]6C[C@H]6C5=O)c(F)c4C)nn3)C2)c1` (single isomer, unassigned) [Example 120, N-((cis)-3-(2-cyano-5-methylphenyl)cyclobutyl)-1-((S or R)-1-(5-fluoro-4-methyl-6-((1R,5S)-2-oxo-3-azabicyclo[3.1.0]hexan-3-yl)pyridin-3-yl)ethyl)-1H-1,2,3-triazole-4-carboxamide], with 0.6 nM; and `COc1nc(C(C)n2cc(C(=O)N[C@H]3C[C@@H](c4cc(Cl)ccc4C#N)C3)nn2)cnc1N1C[C@H]2C[C@H]2C1=O` (single isomer, unassigned) [Example 121, N-((cis)-3-(5-chloro-2-cyanophenyl)cyclobutyl)-1-((R or S)-1-(6-methoxy-5-((1R,5S)-2-oxo-3-azabicyclo[3.1.0]hexan-3-yl)pyrazin-2-yl)ethyl)-1H-1,2,3-triazole-4-carboxamide], with 6.7 nM. On to `COc1nc(C(C)n2cc(C(=O)N[C@H]3C[C@@H](c4cc(Cl)ccc4C#N)C3)nn2)cnc1N1C[C@H]2C[C@H]2C1=O` (single isomer, unassigned) [Example 122, N-((cis)-3-(5-chloro-2-cyanophenyl)cyclobutyl)-1-((S or R)-1-(6-methoxy-5-((1R,5S)-2-oxo-3-azabicyclo[3.1.0]hexan-3-yl)pyrazin-2-yl)ethyl)-1H-1,2,3-triazole-4-carboxamide], for which the IC50 came to 3 nM.
